Columns and labels:
Test in all cases: maximum observed lethal fraction; higher = more cell death
U2OS BAX/BAK1 DKO = system: U2OS BAX/BAK1 DKO
U2OS BCL2L12-KO = system: U2OS BCL2L12-KO
U2OS PTBP1-KO = system: U2OS PTBP1-KO
U2OS = system: U2OS
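Further: FLICK assay: SYTOX Green fluorescence of dead cells tracked over time after drugging in 96-well plates, with total cell counts taken from Triton X-100 lysed wells.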

| SMILES | maximum observed lethal fraction (U2OS BAX/BAK1 DKO; 0.1 µM) | maximum observed lethal fraction (U2OS BAX/BAK1 DKO; 0.316 µM) | maximum observed lethal fraction (U2OS BAX/BAK1 DKO; 1 µM) | maximum observed lethal fraction (U2OS BAX/BAK1 DKO; 3.16 µM) | maximum observed lethal fraction (U2OS BAX/BAK1 DKO; 10 µM) | maximum observed lethal fraction (U2OS BCL2L12-KO; 0.1 µM) | maximum observed lethal fraction (U2OS BCL2L12-KO; 0.316 µM) | maximum observed lethal fraction (U2OS BCL2L12-KO; 1 µM) | maximum observed lethal fraction (U2OS BCL2L12-KO; 3.16 µM) | maximum observed lethal fraction (U2OS BCL2L12-KO; 10 µM) | maximum observed lethal fraction (U2OS PTBP1-KO; 0.1 µM) | maximum observed lethal fraction (U2OS PTBP1-KO; 0.316 µM) | maximum observed lethal fraction (U2OS PTBP1-KO; 1 µM) | maximum observed lethal fraction (U2OS PTBP1-KO; 3.16 µM) | maximum observed lethal fraction (U2OS PTBP1-KO; 10 µM) | maximum observed lethal fraction (U2OS; 0.1 µM) | maximum observed lethal fraction (U2OS; 0.316 µM) | maximum observed lethal fraction (U2OS; 1 µM) | maximum observed lethal fraction (U2OS; 3.16 µM) | maximum observed lethal fraction (U2OS; 10 µM) | also measured |
| --- | --- | --- | --- | --- | --- | --- | --- | --- | --- | --- | --- | --- | --- | --- | --- | --- | --- | --- | --- | --- | --- |
| C/C=C(/C)C(=O)O[C@H]1C(C)=C2[C@H]([C@@H]1OC(=O)CCCCCCC)[C@@](C)(OC(C)=O)C[C@H](OC(=O)CCC)[C@@]1(O)[C@H]2OC(=O)[C@@]1(C)O [Thapsigargin] | 0.192 | 0.171 | 0.266 | 0.163 | 0.811 | 0.675 | 0.688 | 0.71 | 0.721 | 0.779 | 0.265 | 0.324 | 0.296 | 0.48 | 0.831 | 0.476 | 0.473 | 0.602 | 0.585 | 0.763 | maximum observed lethal fraction (U2OS BAX/BAK1 DKO; 0.0316 µM): 0.0914; maximum observed lethal fraction (U2OS BAX/BAK1 DKO; 31.6 µM): 0.884; maximum observed lethal fraction (U2OS BCL2L12-KO; 0.0316 µM): 0.631; maximum observed lethal fraction (U2OS BCL2L12-KO; 31.6 µM): 0.892; maximum observed lethal fraction (U2OS PTBP1-KO; 0.0316 µM): 0.228; maximum observed lethal fraction (U2OS PTBP1-KO; 31.6 µM): 0.892; maximum observed lethal fraction (U2OS; 0.0316 µM): 0.405; maximum observed lethal fraction (U2OS; 31.6 µM): 0.862 |
| CC1(C)CCC(c2ccc(Cl)cc2)=C(CN2CCN(c3ccc(C(=O)NS(=O)(=O)c4ccc(N[C@H](CCN5CCOCC5)CSc5ccccc5)c(S(=O)(=O)C(F)(F)F)c4)cc3)CC2)C1 [ABT-263] | 0.0556 | 0.0535 | 0.0545 | 0.0548 | 0.0634 | 0.0718 | 0.0885 | 0.121 | 0.225 | 0.26 | 0.0713 | 0.0786 | 0.0982 | 0.131 | 0.192 | 0.0623 | 0.0847 | 0.106 | 0.2 | 0.247 | maximum observed lethal fraction (U2OS BAX/BAK1 DKO; 31.6 µM): 0.172; maximum observed lethal fraction (U2OS BAX/BAK1 DKO; 100 µM): 0.43; maximum observed lethal fraction (U2OS BCL2L12-KO; 31.6 µM): 0.821; maximum observed lethal fraction (U2OS BCL2L12-KO; 100 µM): 1; maximum observed lethal fraction (U2OS PTBP1-KO; 31.6 µM): 0.771; maximum observed lethal fraction (U2OS PTBP1-KO; 100 µM): 1; maximum observed lethal fraction (U2OS; 31.6 µM): 0.683; maximum observed lethal fraction (U2OS; 100 µM): 0.984 |
| CC1(C)CCC(CN2CCN(c3ccc(C(=O)NS(=O)(=O)c4ccc(NCC5CCOCC5)c([N+](=O)[O-])c4)c(Oc4cnc5[nH]ccc5c4)c3)CC2)=C(c2ccc(Cl)cc2)C1 [ABT-199] | 0.0501 | 0.0536 | 0.0531 | 0.0558 | 0.0561 | 0.0643 | 0.0609 | 0.063 | 0.0712 | 0.114 | 0.0644 | 0.0635 | 0.0617 | 0.0671 | 0.0741 | 0.0502 | 0.0518 | 0.0546 | 0.0609 | 0.0939 | maximum observed lethal fraction (U2OS BAX/BAK1 DKO; 31.6 µM): 0.0846; maximum observed lethal fraction (U2OS BAX/BAK1 DKO; 100 µM): 0.0728; maximum observed lethal fraction (U2OS BCL2L12-KO; 31.6 µM): 0.39; maximum observed lethal fraction (U2OS BCL2L12-KO; 100 µM): 0.692; maximum observed lethal fraction (U2OS PTBP1-KO; 31.6 µM): 0.211; maximum observed lethal fraction (U2OS PTBP1-KO; 100 µM): 0.517; maximum observed lethal fraction (U2OS; 31.6 µM): 0.239; maximum observed lethal fraction (U2OS; 100 µM): 0.52 |
| CC(=O)[C@]1(O)Cc2c(O)c3c(c(O)c2[C@@H](O[C@H]2C[C@H](N)[C@H](O)[C@H](C)O2)C1)C(=O)c1ccccc1C3=O [Idarubicin] | 0.212 | 0.18 | 0.193 | – | – | 0.74 | 0.724 | 0.321 | – | – | 0.633 | 0.589 | 0.305 | – | – | 0.666 | 0.792 | 0.604 | – | – | maximum observed lethal fraction (U2OS BAX/BAK1 DKO; 0.001 µM): 0.0756; maximum observed lethal fraction (U2OS BAX/BAK1 DKO; 0.00316 µM): 0.0795; maximum observed lethal fraction (U2OS BAX/BAK1 DKO; 0.01 µM): 0.0849; maximum observed lethal fraction (U2OS BAX/BAK1 DKO; 0.0316 µM): 0.0871; maximum observed lethal fraction (U2OS BCL2L12-KO; 0.001 µM): 0.0766; maximum observed lethal fraction (U2OS BCL2L12-KO; 0.00316 µM): 0.088; maximum observed lethal fraction (U2OS BCL2L12-KO; 0.01 µM): 0.0897; maximum observed lethal fraction (U2OS BCL2L12-KO; 0.0316 µM): 0.231; maximum observed lethal fraction (U2OS PTBP1-KO; 0.001 µM): 0.077; maximum observed lethal fraction (U2OS PTBP1-KO; 0.00316 µM): 0.0792; maximum observed lethal fraction (U2OS PTBP1-KO; 0.01 µM): 0.0832; maximum observed lethal fraction (U2OS PTBP1-KO; 0.0316 µM): 0.2; maximum observed lethal fraction (U2OS; 0.001 µM): 0.0637; maximum observed lethal fraction (U2OS; 0.00316 µM): 0.0722; maximum observed lethal fraction (U2OS; 0.01 µM): 0.0707; maximum observed lethal fraction (U2OS; 0.0316 µM): 0.166 |
| COc1cc([C@@H]2c3cc4c(cc3[C@@H](O[C@@H]3O[C@@H]5CO[C@@H](C)O[C@H]5[C@H](O)[C@H]3O)[C@H]3COC(=O)[C@H]23)OCO4)cc(OC)c1O [Etoposide] | 0.0596 | 0.0706 | 0.0746 | 0.0695 | 0.0871 | 0.0728 | 0.083 | 0.0936 | 0.0967 | 0.341 | 0.0782 | 0.0848 | 0.0897 | 0.0981 | 0.384 | 0.0636 | 0.0687 | 0.0712 | 0.0784 | 0.31 | maximum observed lethal fraction (U2OS BAX/BAK1 DKO; 0.0316 µM): 0.055; maximum observed lethal fraction (U2OS BAX/BAK1 DKO; 31.6 µM): 0.0793; maximum observed lethal fraction (U2OS BCL2L12-KO; 0.0316 µM): 0.0627; maximum observed lethal fraction (U2OS BCL2L12-KO; 31.6 µM): 0.629; maximum observed lethal fraction (U2OS PTBP1-KO; 0.0316 µM): 0.0736; maximum observed lethal fraction (U2OS PTBP1-KO; 31.6 µM): 0.649; maximum observed lethal fraction (U2OS; 0.0316 µM): 0.0568; maximum observed lethal fraction (U2OS; 31.6 µM): 0.601 |
| CC(C)C[C@@H](C=O)NC(=O)[C@H](CC(C)C)NC(=O)[C@H](CC(C)C)NC(=O)OCc1ccccc1 [MG132] | 0.0687 | 0.0897 | 0.337 | 0.434 | 0.384 | 0.0753 | 0.327 | 0.817 | 0.914 | 0.972 | 0.0708 | 0.182 | 0.683 | 0.813 | 0.923 | 0.0844 | 0.698 | 0.86 | 0.893 | 0.926 | maximum observed lethal fraction (U2OS BAX/BAK1 DKO; 0.01 µM): 0.0534; maximum observed lethal fraction (U2OS BAX/BAK1 DKO; 0.0316 µM): 0.0549; maximum observed lethal fraction (U2OS BCL2L12-KO; 0.01 µM): 0.0715; maximum observed lethal fraction (U2OS BCL2L12-KO; 0.0316 µM): 0.07; maximum observed lethal fraction (U2OS PTBP1-KO; 0.01 µM): 0.0698; maximum observed lethal fraction (U2OS PTBP1-KO; 0.0316 µM): 0.0706; maximum observed lethal fraction (U2OS; 0.01 µM): 0.0559; maximum observed lethal fraction (U2OS; 0.0316 µM): 0.0568 |
| C[C@H]1CCC/C=C/[C@@H]2C[C@H](O)C[C@H]2[C@H](O)/C=C/C(=O)O1 [Brefeldin A] | 0.075 | 0.0688 | 0.0708 | 0.0703 | 0.0786 | 0.387 | 0.628 | 0.709 | 0.77 | 0.793 | 0.257 | 0.333 | 0.321 | 0.29 | 0.411 | 0.38 | 0.634 | 0.701 | 0.762 | 0.775 | maximum observed lethal fraction (U2OS BAX/BAK1 DKO; 0.0316 µM): 0.0711; maximum observed lethal fraction (U2OS BAX/BAK1 DKO; 31.6 µM): 0.0716; maximum observed lethal fraction (U2OS BCL2L12-KO; 0.0316 µM): 0.218; maximum observed lethal fraction (U2OS BCL2L12-KO; 31.6 µM): 0.86; maximum observed lethal fraction (U2OS PTBP1-KO; 0.0316 µM): 0.168; maximum observed lethal fraction (U2OS PTBP1-KO; 31.6 µM): 0.389; maximum observed lethal fraction (U2OS; 0.0316 µM): 0.0868; maximum observed lethal fraction (U2OS; 31.6 µM): 0.818 |
| Nc1ccc(-c2ccc3ncc4ccc(=O)n(-c5cccc(C(F)(F)F)c5)c4c3c2)cn1 [Torin2] | 0.0756 | 0.0765 | 0.0833 | 0.0776 | 0.0881 | 0.181 | 0.249 | 0.362 | 0.467 | 0.629 | 0.107 | 0.196 | 0.276 | 0.363 | 0.436 | 0.0904 | 0.197 | 0.299 | 0.435 | 0.589 | maximum observed lethal fraction (U2OS BAX/BAK1 DKO; 0.0316 µM): 0.0705; maximum observed lethal fraction (U2OS BAX/BAK1 DKO; 31.6 µM): 0.272; maximum observed lethal fraction (U2OS BCL2L12-KO; 0.0316 µM): 0.104; maximum observed lethal fraction (U2OS BCL2L12-KO; 31.6 µM): 0.443; maximum observed lethal fraction (U2OS PTBP1-KO; 0.0316 µM): 0.0906; maximum observed lethal fraction (U2OS PTBP1-KO; 31.6 µM): 0.421; maximum observed lethal fraction (U2OS; 0.0316 µM): 0.0812; maximum observed lethal fraction (U2OS; 31.6 µM): 0.396 |

— the supplement of paper PMC12406974
